From US10526327B2, “Histone demethylase inhibitors” (CELGENE QUANTICEL RESEARCH, INC., priority 2013, dated 2020)

biological target: T1, Jarid1A (Homo sapiens, UniProt P29375); assay: Jarid1A in vitro enzyme inhibition assay (TR-FRET); assay type: biochemical
T1 construct: purchased BPS Bioscience 50110
T1 sequence (P29375 1-1090): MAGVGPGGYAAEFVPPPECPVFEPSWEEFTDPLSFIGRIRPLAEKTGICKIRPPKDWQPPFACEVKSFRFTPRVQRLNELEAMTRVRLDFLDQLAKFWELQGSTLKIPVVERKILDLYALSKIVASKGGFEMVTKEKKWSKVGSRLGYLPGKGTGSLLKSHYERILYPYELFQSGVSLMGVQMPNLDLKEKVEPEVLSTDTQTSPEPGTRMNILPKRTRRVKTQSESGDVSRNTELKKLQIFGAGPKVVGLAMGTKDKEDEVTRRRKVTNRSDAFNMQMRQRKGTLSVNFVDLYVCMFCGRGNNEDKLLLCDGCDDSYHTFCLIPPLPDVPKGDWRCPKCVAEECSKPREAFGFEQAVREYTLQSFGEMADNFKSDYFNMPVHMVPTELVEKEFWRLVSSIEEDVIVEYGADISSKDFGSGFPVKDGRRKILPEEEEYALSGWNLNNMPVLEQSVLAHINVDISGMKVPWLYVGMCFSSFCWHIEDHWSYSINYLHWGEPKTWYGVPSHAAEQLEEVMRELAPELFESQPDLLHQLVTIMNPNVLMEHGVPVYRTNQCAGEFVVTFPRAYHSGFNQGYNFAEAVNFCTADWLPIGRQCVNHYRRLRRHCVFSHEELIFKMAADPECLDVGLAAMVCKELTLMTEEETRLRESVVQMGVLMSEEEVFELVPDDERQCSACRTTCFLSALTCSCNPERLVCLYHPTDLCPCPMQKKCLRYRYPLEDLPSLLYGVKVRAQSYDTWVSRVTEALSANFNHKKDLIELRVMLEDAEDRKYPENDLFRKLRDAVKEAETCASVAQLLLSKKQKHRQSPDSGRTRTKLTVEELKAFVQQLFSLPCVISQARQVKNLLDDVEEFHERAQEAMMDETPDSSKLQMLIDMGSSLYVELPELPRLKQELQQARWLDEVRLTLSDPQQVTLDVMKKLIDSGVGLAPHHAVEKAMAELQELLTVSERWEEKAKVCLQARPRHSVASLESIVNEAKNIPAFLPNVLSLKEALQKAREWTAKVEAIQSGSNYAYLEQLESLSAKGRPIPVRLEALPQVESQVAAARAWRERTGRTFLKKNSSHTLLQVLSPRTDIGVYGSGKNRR
Summary of the method: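 Demethylation of 300 nM biotin-H3K4me3 peptide by 1 nM baculovirus-expressed Jarid1A (aa 1–1090) with 2 μM α-ketoglutarate, Fe(II) and ascorbate, pH 7.3, 30 min at room temperature. Stopped with EDTA; H3K4me1-2 product detected by TR-FRET (Eu anti-H3K4me1-2/streptavidin-APC). IC50 fitted from 665/615 ratio over 11-point dilutions.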

| IC50 | SMILES |
| --- | --- |
| ≤ 100 nM | O=S(=O)(C1CC1)N1CCCC(n2cc(Oc3nc(O)c4ccncc4n3)cn2)C1 (stereo in doubt) [Example 151, 2-({1-[(3S)-1-(cyclopropanesulfonyl)piperidin-3-yl]-1H-pyrazol-4-yl}oxy)pyrido[3,4-d]pyrimidin-4-ol] |
| ≤ 100 nM | Oc1nc(Oc2cnn(C3CCCN(c4ccc(F)cc4)C3)c2)nc2cnccc12 (stereo in doubt) [Example 169, 2-({1-[(3R)-1-(4-fluorophenyl)piperidin-3-yl]-1H-pyrazol-4-yl}oxy)pyrido[3,4-d]pyrimidin-4-ol] |
| ≤ 100 nM | Oc1nc(OCCC(F)(F)F)nc2cnccc12 [Example 13, 2-(3,3,3-trifluoropropoxy)pyrido[3,4-d]pyrimidin-4-ol] |
| 100 to 1000 nM | CC(C)COc1nc(O)c2ccncc2n1 [Example 14, 2-(2-methylpropoxy)pyrido[3,4-d]pyrimidin-4-ol] |
| 100 to 1000 nM | CC(COc1nc(O)c2ccncc2n1)c1ccccc1 (stereo not shown) [Example 17, 2-(2-phenylpropoxy)pyrido[3,4-d]pyrimidin-4-ol] |
| ≤ 100 nM | Oc1nc(OCCc2ccccc2)nc2cnccc12 [Example 18, 2-(2-phenylethoxy)pyrido[3,4-d]pyrimidin-4-ol] |
| 1000 to 10000 nM | CC(Cc1ccccc1)Oc1nc(O)c2ccncc2n1 (stereo not shown) [Example 19, 2-(1-phenylpropan-2-yloxy)pyrido[3,4-d]pyrimidin-4-ol] |
| 100 to 1000 nM | CN(C)CCCOc1nc(O)c2ccncc2n1 [Example 21, 2-[3-(dimethylamino)propoxy]pyrido[3,4-d]pyrimidin-4-ol] |
| 100 to 1000 nM | COCCOc1nc(O)c2ccncc2n1 [Example 22, 2-(2-methoxyethoxy)pyrido[3,4-d]pyrimidin-4-ol] |
| 100 to 1000 nM | Cn1cnc(-c2nccc3c(O)nc(OCc4ccccc4C(F)(F)F)nc23)c1 [Example 107, 8-(1-methyl-1H-imidazol-4-yl)-2-{[2-(trifluoromethyl)phenyl]methoxy}pyrido[3,4-d]pyrimidin-4-ol] |
| 1000 to 10000 nM | Cn1cnc(-c2nccc3c(O)nc(O[C@H](c4ccccc4)C(F)(F)F)nc23)c1 [Example 108, 8-(1-methyl-1H-imidazol-4-yl)-2-[(1R)-2,2,2-trifluoro-1-phenylethoxy]pyrido[3,4-d]pyrimidin-4-ol] |
| 1000 to 10000 nM | Cn1cnc(-c2nccc3c(O)nc(O[C@@H](c4ccccc4)C(F)(F)F)nc23)c1 [Example 109, 8-(1-methyl-1H-imidazol-4-yl)-2-[(1S)-2,2,2-trifluoro-1-phenylethoxy]pyrido[3,4-d]pyrimidin-4-ol] |
| 100 to 1000 nM | CCC(Oc1nc(O)c2ccnc(-c3cn(C)cn3)c2n1)C(F)(F)F (stereo not shown) [Example 110, 8-(1-methyl-1H-imidazol-4-yl)-2-[(1,1,1-trifluorobutan-2-yl)oxy]pyrido[3,4-d]pyrimidin-4-ol] |
| ≤ 100 nM | Cn1cnc(-c2nccc3c(O)nc(OCc4ccc(C(F)(F)F)cc4)nc23)c1 [Example 111, 8-(1-methyl-1H-imidazol-4-yl)-2-{[4-(trifluoromethyl)phenyl]methoxy}pyrido[3,4-d]pyrimidin-4-ol] |
| 100 to 1000 nM | Cn1cnc(-c2nccc3c(O)nc(OCc4ccc(Cl)cc4)nc23)c1 [Example 112, 2-[(4-chlorophenyl)methoxy]-8-(1-methyl-1H-imidazol-4-yl)pyrido[3,4-d]pyrimidin-4-ol] |
| ≤ 100 nM | Cn1cnc(-c2nccc3c(O)nc(Oc4ccc(Cl)c(Cl)c4)nc23)c1 [Example 113, 2-(3,4-dichlorophenoxy)-8-(1-methyl-1H-imidazol-4-yl)pyrido[3,4-d]pyrimidin-4-ol] |
| 100 to 1000 nM | Oc1nc(Oc2ccc(Cl)c(Cl)c2)nc2cnccc12 [Example 114, 2-(3,4-dichlorophenoxy)pyrido[3,4-d]pyrimidin-4-ol] |

| IC50 | SMILES |
| --- | --- |
| ≤ 100 nM | CCC(c1ccccc1)n1cc(Oc2nc(O)c3ccncc3n2)cn1 (stereo not shown) [Example 115, 2-{[1-(1-phenylpropyl)-1H-pyrazol-4-yl]oxy}pyrido[3,4-d]pyrimidin-4-ol] |
| ≤ 100 nM | Oc1nc(Oc2cnn(C(c3ccccc3)C3CC3)c2)nc2cnccc12 (stereo not shown) [Example 116, 2-({1-[cyclopropyl(phenyl)methyl]-1H-pyrazol-4-yl}oxy)pyrido[3,4-d]pyrimidin-4-ol] |
| ≤ 100 nM | C[C@H](c1ccccc1)n1cc(Oc2nc(O)c3ccncc3n2)cn1 [Example 117, 2-({1-[(1R)-1-phenylethyl]-1H-pyrazol-4-yl}oxy)pyrido[3,4-d]pyrimidin-4-ol] |
| ≤ 100 nM | C[C@@H](c1ccccc1)n1cc(Oc2nc(O)c3ccncc3n2)cn1 [Example 118, 2-({1-[(1S)-1-phenylethyl]-1H-pyrazol-4-yl}oxypyrido) [3,4-d]pyrimidin-4-ol] |
| ≤ 100 nM | C[C@H](c1ccccc1F)n1cc(Oc2nc(O)c3ccncc3n2)cn1 [Example 119, 2-({1-[(1R)-1-(2-fluorophenyl)ethyl]-1H-pyrazol-4-yl}oxy)pyrido[3,4-d]pyrimidin-4-ol] |
| ≤ 100 nM | C[C@@H](c1ccccc1F)n1cc(Oc2nc(O)c3ccncc3n2)cn1 [Example 120, 2-({1-[(1s)-1-(2-fluorophenyl)ethyl]-1H-pyrazol-4-yl}oxy)pyrido[3,4-d]pyrimidin-4-ol] |
| ≤ 100 nM | Oc1nc(Oc2cnn(Cc3ccccc3Cl)c2)nc2cnccc12 [Example 121, 2-({1-[(2-chlorophenyl)methyl]-1H-pyrazol-4-yl}oxy)pyrido[3,4-d]pyrimidin-4-ol] |
| ≤ 100 nM | Oc1nc(Oc2cnn(Cc3cccc(Cl)c3)c2)nc2cnccc12 [Example 122, 2-({1-[(3-chlorophenyl)methyl]-1H-pyrazol-4-yl}oxy)pyrido[3,4-d]pyrimidin-4-ol] |
| ≤ 100 nM | Oc1nc(Oc2cnn(C3CCN(Cc4ccccc4)CC3)c2)nc2cnccc12 [Example 123, 2-{[1-(1-benzylpiperidin-4-yl)-1H-pyrazol-4-yl]oxy}pyrido[3,4-d]pyrimidin-4-ol] |
| ≤ 100 nM | Oc1nc(Oc2cnn(CCN3CCOCC3)c2)nc2cnccc12 [Example 124, 2-({1-[2-(morpholin-4-yl)ethyl]-1H-pyrazol-4-yl}oxy)pyrido[3,4-d]pyrimidin-4-ol] |
| ≤ 100 nM | Oc1nc(Oc2cnn([C@@H]3CCNC3)c2)nc2cnccc12 [Example 125, 2-({1-[(3R)-pyrrolidin-3-yl]-1H-pyrazol-4-yl}oxy)pyrido[3,4-d]pyrimidin-4-ol] |
| ≤ 100 nM | CCS(=O)(=O)N1CC[C@@H](n2cc(Oc3nc(O)c4ccncc4n3)cn2)C1 [Example 126, 2-({1-[(3R)-1-(ethanesulfonyl)pyrrolidin-3-yl]-1H-pyrazol-4-yl}oxy)pyrido[3,4-d]pyrimidin-4-ol] |
| ≤ 100 nM | O=S(=O)(C1CC1)N1CC[C@@H](n2cc(Oc3nc(O)c4ccncc4n3)cn2)C1 [Example 127, 2-({1-[(3R)-1-(cyclopropanesulfonyl)pyrrolidin-3-yl]-1H-pyrazol-4-yl}oxy)pyrido[3,4-d]pyrimidin-4-ol] |
| ≤ 100 nM | O=S(=O)(c1ccccc1)N1CC[C@@H](n2cc(Oc3nc(O)c4ccncc4n3)cn2)C1 [Example 128, 2-({1-[(3R)-1-(benzenesulfonyl)pyrrolidin-3-yl]-1H-pyrazol-4-yl}oxy)pyrido[3,4-d]pyrimidin-4-ol] |
| ≤ 100 nM | CC(=O)N1CC[C@@H](n2cc(Oc3nc(O)c4ccncc4n3)cn2)C1 [Example 129, 1-[(3R)-3-[4-({4-hydroxypyrido[3,4-d]pyrimidin-2-yl}oxy)-1H-pyrazol-1-yl]pyrrolidin-1-yl]ethan-1-one] |
| ≤ 100 nM | N#CCC(=O)N1CC[C@@H](n2cc(Oc3nc(O)c4ccncc4n3)cn2)C1 [Example 130, 3-[(3R)-3-[4-({4-hydroxypyrido[3,4-d]pyrimidin-2-yl}oxy)-1H-pyrazol-1-yl]pyrrolidin-1-yl]-3-oxopropanenitrile] |
| ≤ 100 nM | O=C(C1CC1)N1CC[C@@H](n2cc(Oc3nc(O)c4ccncc4n3)cn2)C1 [Example 131, 2-({1-[(3R)-1-cyclopropanecarbonylpyrrolidin-3-yl]-1H-pyrazol-4-yl}oxy)pyrido[3,4-d]pyrimidin-4-ol] |

| SMILES | IC50 |
| --- | --- |
| CC(C)CCOc1nc(O)c2ccncc2n1 [Example 15, 2-(3-methylbutoxy)pyrido[3,4-d]pyrimidin-4-ol] | ≤ 100 nM |
| CCC(C)COc1nc(O)c2ccncc2n1 (stereo not shown) [Example 16, 2-(2-methylbutoxy)pyrido[3,4-d]pyrimidin-4-ol] | 100 to 1000 nM |
| Oc1nc(OCCCC(F)(F)F)nc2cnccc12 [Example 20, 2-(4,4,4-trifluorobutoxy)pyrido[3,4-d]pyrimidin-4-ol] | ≤ 100 nM |
